Reference: patent US20230073777A1, “CYCLIC-AMP RESPONSE ELEMENT BINDING PROTEIN (CBP) AND/OR ADENOVIRAL E1A BINDING PROTEIN OF 300 KDA (P300) DEGRADATION COMPOUNDS AND METHODS OF USE” (CULLGEN (SHANGHAI), INC., priority 2019, published 2023)
pIC50: −log10 of the molar value. Where two headings read alike, the source gives them in different places.

How the values were obtained:
P300 = P300 (Homo sapiens, UniProt Q09472); assay: Immunoblotting of P300 protein levels in LNCaP or 22RV1 cells; type: cell-based; parameters: LNCaP or 22RV1 cells that express CBP/P300 proteins were treated with GNE-781 or the bivalent compounds; endogenous in cells; host or cells: LNCaP (clone FGC) or 22RV1 cells; details: read-out: Degradation (10 nM)
Chain of P300 (Q09472 whole entry): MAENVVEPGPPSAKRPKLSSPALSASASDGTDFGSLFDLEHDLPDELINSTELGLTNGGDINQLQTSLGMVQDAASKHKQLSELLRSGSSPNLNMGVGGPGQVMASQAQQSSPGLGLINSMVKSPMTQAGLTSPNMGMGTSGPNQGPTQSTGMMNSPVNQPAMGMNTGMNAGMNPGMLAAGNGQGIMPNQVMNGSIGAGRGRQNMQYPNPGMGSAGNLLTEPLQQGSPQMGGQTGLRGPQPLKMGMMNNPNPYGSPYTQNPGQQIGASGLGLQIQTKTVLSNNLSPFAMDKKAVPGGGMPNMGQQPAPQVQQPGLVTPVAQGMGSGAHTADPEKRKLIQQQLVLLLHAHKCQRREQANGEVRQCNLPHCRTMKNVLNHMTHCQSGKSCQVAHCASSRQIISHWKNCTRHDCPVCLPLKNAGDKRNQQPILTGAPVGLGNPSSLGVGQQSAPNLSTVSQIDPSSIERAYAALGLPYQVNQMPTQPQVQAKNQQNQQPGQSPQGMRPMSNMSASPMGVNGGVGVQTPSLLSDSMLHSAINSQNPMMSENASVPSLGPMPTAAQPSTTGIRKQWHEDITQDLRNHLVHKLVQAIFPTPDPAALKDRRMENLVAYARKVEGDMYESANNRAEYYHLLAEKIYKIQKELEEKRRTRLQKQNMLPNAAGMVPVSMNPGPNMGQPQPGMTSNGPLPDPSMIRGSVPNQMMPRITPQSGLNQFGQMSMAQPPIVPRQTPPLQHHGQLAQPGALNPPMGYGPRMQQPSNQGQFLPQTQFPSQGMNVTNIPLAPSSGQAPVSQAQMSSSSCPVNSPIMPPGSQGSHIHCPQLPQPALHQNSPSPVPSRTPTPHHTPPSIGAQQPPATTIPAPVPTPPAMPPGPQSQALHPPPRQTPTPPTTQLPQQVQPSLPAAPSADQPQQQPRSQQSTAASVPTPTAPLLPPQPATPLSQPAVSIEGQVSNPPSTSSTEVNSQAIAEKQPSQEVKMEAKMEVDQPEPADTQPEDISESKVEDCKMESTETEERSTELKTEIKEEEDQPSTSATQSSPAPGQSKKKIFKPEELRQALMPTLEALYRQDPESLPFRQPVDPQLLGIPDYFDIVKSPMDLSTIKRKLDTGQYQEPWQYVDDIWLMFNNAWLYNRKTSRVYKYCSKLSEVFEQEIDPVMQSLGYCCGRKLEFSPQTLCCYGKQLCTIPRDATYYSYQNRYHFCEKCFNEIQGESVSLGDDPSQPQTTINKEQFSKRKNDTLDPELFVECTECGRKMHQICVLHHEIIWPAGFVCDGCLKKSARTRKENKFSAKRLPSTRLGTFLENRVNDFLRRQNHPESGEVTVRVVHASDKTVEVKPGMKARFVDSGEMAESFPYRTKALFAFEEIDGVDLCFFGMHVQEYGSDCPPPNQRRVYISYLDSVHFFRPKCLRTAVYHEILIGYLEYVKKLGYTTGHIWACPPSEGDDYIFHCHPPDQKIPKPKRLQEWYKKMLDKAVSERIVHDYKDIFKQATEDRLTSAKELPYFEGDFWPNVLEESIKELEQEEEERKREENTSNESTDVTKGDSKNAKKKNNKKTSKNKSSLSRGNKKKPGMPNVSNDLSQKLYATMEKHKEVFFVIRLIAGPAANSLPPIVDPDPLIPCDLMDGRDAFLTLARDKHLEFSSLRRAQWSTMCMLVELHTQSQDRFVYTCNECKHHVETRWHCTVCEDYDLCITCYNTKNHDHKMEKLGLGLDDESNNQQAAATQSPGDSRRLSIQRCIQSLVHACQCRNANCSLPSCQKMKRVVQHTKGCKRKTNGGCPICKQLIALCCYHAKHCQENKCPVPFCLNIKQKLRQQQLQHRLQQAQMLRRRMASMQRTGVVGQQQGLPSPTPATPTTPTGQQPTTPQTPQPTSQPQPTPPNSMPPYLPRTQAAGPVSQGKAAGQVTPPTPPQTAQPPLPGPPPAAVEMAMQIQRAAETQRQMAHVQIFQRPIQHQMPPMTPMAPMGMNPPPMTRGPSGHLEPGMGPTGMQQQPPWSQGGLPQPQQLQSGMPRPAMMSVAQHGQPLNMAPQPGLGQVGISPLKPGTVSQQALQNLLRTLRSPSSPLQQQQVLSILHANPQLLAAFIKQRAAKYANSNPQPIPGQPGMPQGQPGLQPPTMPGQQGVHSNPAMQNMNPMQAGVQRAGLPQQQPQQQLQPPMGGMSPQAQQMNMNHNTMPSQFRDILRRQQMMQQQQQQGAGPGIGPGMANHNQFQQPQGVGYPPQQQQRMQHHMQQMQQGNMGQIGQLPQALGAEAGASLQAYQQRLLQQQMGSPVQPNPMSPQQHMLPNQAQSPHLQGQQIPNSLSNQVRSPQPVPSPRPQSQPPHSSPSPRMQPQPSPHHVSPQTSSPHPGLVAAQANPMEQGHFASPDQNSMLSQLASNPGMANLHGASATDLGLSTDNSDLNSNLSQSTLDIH
In short: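 P300/CBP levels quantified by chemiluminescent immunoblot band densitometry, normalized against tubulin or vinculin loading controls. Lysates came from LNCaP or 22RV1 cells exposed to compounds or DMSO vehicle for indicated times.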

LNCaP cells = assay: LNCaP cell viability assay (CellTiter-Glo); type: cell-based; details: Homo sapiens, 72 h, LNCaP prostate cancer cell viability inhibition, 3 days
In short: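 Three-day treatment of LNCaP cells (5000 per well) across a 12-point, 3-fold dilution series starting at 10 μM. ATP luminescence (CellTiter-Glo) relative to untreated controls gave dose-response curves fitted nonlinearly for IC50.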

[1] = percentage of inhibition of p300 at 10 nM (Table 2)
[2] = percentage of inhibition of p300 at 10 nM (Table 3)

Row | SMILES | inhibition at 0.01 µM (P300) | pIC50 (LNCaP cells; CellTiter-Glo (Table 3)) | inhibition at 0.01 µM (P300; [1]) | pIC50 (LNCaP cells; CellTiter-Glo (Table 2)) | inhibition at 0.01 µM (P300; [2])
1 | CC(=O)N1CCc2c(c(N3CCCc4cc(-c5cnn(C)c5)c(C(F)F)cc43)nn2C2CCN(CCN3CCC(CNc4cccc5c4C(=O)N(C4CCC(=O)NC4=O)C5=O)CC3)CC2)C1 (centres unmarked) [P-143, 4-(((1-(2-(4-(5-acetyl-3-(7-(difluoromethyl)-6-(1-methyl-1H-pyrazol-4-yl)-3,4-dihydroquinolin-1(2H)-yl)-4,5,6,7-tetrahydro-1H-pyrazolo[4,3-c]pyridin-1-yl)piperidin-1-yl)ethyl)piperidin-4-yl)methyl)amino)-2-(2,6-dioxopiperidin-3-yl)isoindoline-1,3-dione] | > 80% | 8.82 |  |  | 
2 | CNC(=O)N1CCc2c(c(N3CCCc4cc(-c5cnn(C)c5)c(C(F)F)cc43)nn2C2CCN(C(=O)CCNc3cccc4c3C(=O)N(C3CCC(=O)NC3=O)C4=O)CC2)C1 (centres unmarked) [P-014, 3-(7-(Difluoromethyl)-6-(1-methyl-1H-pyrazol-4-yl)-3,4-dihydroquinolin-1(2H)-yl)-1-(1-(3-((2-(2,6-dioxopiperidin-3-yl)-1,3-dioxoisoindolin-4-yl)amino)propanoyl)piperidin-4-yl)-N-methyl-1,4,6,7-tetrahydro-5H-pyrazolo[4,3-c]pyridine-5-carboxamide] |  |  | < 20% | < 5.00 | 
3 | CC(=O)N1CCc2c(c(N3CCCc4cc(-c5cnn(C)c5)c(C(F)F)cc43)nn2C2CCN(C(=O)CCCCNc3cccc4nc(C)n(C5CCC(=O)NC5=O)c(=O)c34)CC2)C1 (centres unmarked) [P-154, 3-(5-((5-(4-(5-Acetyl-3-(7-(difluoromethyl)-6-(1-methyl-1H-pyrazol-4-yl)-3,4-dihydroquinolin-1(2H)-yl)-4,5,6,7-tetrahydro-1H-pyrazolo[4,3-c]pyridin-1-yl)piperidin-1-yl)-5-oxopentyl)amino)-2-methyl-4-oxoquinazolin-3(4H)-yl)piperidine-2,6-dione] |  | < 6.00 |  |  | 20 to 50%
4 | CNC(=O)N1CCc2c(c(N3CCCc4cc(-c5cnn(C)c5)c(C(F)F)cc43)nn2C2CCN(C(=O)CCCCNc3ccc4c(c3)C(=O)N(C3CCC(=O)NC3=O)C4=O)CC2)C1 (centres unmarked) [P-004, 3-(7-(difluoromethyl)-6-(1-methyl-1H-pyrazol-4-yl)-3,4-dihydroquinolin-1(2H)-yl)-1-(1-(5-((2-(2,6-dioxopiperidin-3-yl)-1,3-dioxoisoindolin-5-yl)amino)pentanoyl)piperidin-4-yl)-N-methyl-1,4,6,7-tetrahydro-5H-pyrazolo[4,3-c]pyridine-5-carboxamide] |  |  | > 80% | 8.15 | 
5 | CC(=O)N1CCc2c(c(N3CCCc4cc(-c5cnn(C)c5)c(C(F)F)cc43)nn2C2CCN(C(=O)CN3CCOC(CCNc4cccc5c4C(=O)N(C4CCC(=O)NC4=O)C5=O)C3)CC2)C1 (centres unmarked) [P-172, 4-((2-(4-(2-(4-(5-Acetyl-3-(7-(difluoromethyl)-6-(1-methyl-1H-pyrazol-4-yl)-3,4-dihydroquinolin-1(2H)-yl)-4,5,6,7-tetrahydro-1H-pyrazolo[4,3-c]pyridin-1-yl)piperidin-1-yl)-2-oxoethyl)morpholin-2-yl)ethyl)amino)-2-(2,6-dioxopiperidin-3-yl)isoindoline-1,3-dione] |  | 7.24 |  |  | 20 to 50%
6 | CC(=O)N1CCc2c(c(N3CCCc4cc(-c5cnn(C)c5)c(C(F)F)cc43)nn2C2CCN(Cc3ccc(CCOc4cccc5c4CN(C4CCC(=O)NC4=O)C5=O)cc3)CC2)C1 (centres unmarked) [P-174, 3-(4-(4-((4-(5-acetyl-3-(7-(difluoromethyl)-6-(1-methyl-1H-pyrazol-4-yl)-3,4-dihydroquinolin-1(2H)-yl)-4,5,6,7-tetrahydro-1H-pyrazolo[4,3-c]pyridin-1-yl)piperidin-1-yl)methyl)phenethoxy)-1-oxoisoindolin-2-yl)piperidine-2,6-dione] |  | 9.40 |  |  | > 80%
7 | CNC(=O)N1CCc2c(c(N3CCCc4cc(-c5cnn(CC(=O)NCCCCCCC(=O)N[C@H](C(=O)N6C[C@H](O)C[C@H]6C(=O)NCc6ccc(-c7scnc7C)cc6)C(C)(C)C)c5)c(C(F)F)cc43)nn2C2CCOCC2)C1 [P-080, 3-(7-(Difluoromethyl)-6-(1-(2-((7-(((S)-1-((2S,4R)-4-hydroxy-2-((4-(4-methylthiazol-5-yl)benzyl)carbamoyl)pyrrolidin-1-yl)-3,3-dimethyl-1-oxobutan-2-yl)amino)-7-oxoheptyl)amino)-2-oxoethyl)-1H-pyrazol-4-yl)-3,4-dihydroquinolin-1(2H)-yl)-N-methyl-1-(tetrahydro-2H-pyran-4-yl)-1,4,6,7-tetrahydro-5H-pyrazolo[4,3-c]pyridine-5-carboxamide] |  | < 5.00 |  |  | < 20%
8 | CNC(=O)N1CCc2c(c(N3CCCc4cc(-c5cnn(C)c5)c(C(F)F)cc43)nn2C2CCN(C(=O)CCCCCNc3cccc4c3CN(C3CCC(=O)NC3=O)C4=O)CC2)C1 (centres unmarked) [P-095, 3-(7-(Difluoromethyl)-6-(1-methyl-1H-pyrazol-4-yl)-3,4-dihydroquinolin-1(2H)-yl)-1-(1-(6-((2-(2,6-dioxopiperidin-3-yl)-1-oxoisoindolin-4-yl)amino)hexanoyl)piperidin-4-yl)-N-methyl-1,4,6,7-tetrahydro-5H-pyrazolo[4,3-c]pyridine-5-carboxamide] |  | 7.17 |  |  | 20 to 50%
9 | CNC(=O)N1CCc2c(c(N3CCCc4cc(-c5cnn(C)c5)c(C(F)F)cc43)nn2C2CCN(C(=O)CCOCCOCCOCCOCCOCCC(=O)N[C@H](C(=O)N3C[C@H](O)C[C@H]3C(=O)NCc3ccc(-c4scnc4C)cc3)C(C)(C)C)CC2)C1 [P-072, 3-(7-(Difluoromethyl)-6-(1-methyl-1H-pyrazol-4-yl)-3,4-dihydroquinolin-1(2H)-yl)-1-(1-((S)-21-((2S,4R)-4-hydroxy-2-((4-(4-methylthiazol-5-yl)benzyl)carbamoyl)pyrrolidine-1-carbonyl)-22,22-dimethyl-19-oxo-4,7,10,13,16-pentaoxa-20-azatricosanoyl)piperidin-4-yl)-N-methyl-1,4,6,7-tetrahydro-5H-pyrazolo[4,3-c]pyridine-5-carboxamide] |  | 7.22 |  |  | < 20%
10 | CNC(=O)N1CCc2c(c(N3CCCc4cc(-c5cnn(CC(=O)NCCNc6cccc7c6C(=O)N(C6CCC(=O)NC6=O)C7=O)c5)c(C(F)F)cc43)nn2C2CCOCC2)C1 (centres unmarked) [P-037, 3-(7-(Difluoromethyl)-6-(1-(2-((2-((2-(2,6-dioxopiperidin-3-yl)-1,3-dioxoisoindolin-4-yl)amino)ethyl)amino)-2-oxoethyl)-1H-pyrazol-4-yl)-3,4-dihydroquinolin-1(2H)-yl)-N-methyl-1-(tetrahydro-2H-pyran-4-yl)-1,4,6,7-tetrahydro-5H-pyrazolo[4,3-c]pyridine-5-carboxamide] |  |  | < 20% | < 5.00 | 
11 | CNC(=O)N1CCc2c(c(N3CCCc4cc(-c5cnn(C)c5)c(C(F)F)cc43)nn2C2CCN(C(=O)CCCCCCCC(=O)N[C@H](C(=O)N3C[C@H](O)C[C@H]3C(=O)NCc3ccc(-c4scnc4C)cc3)C(C)(C)C)CC2)C1 [P-061, 3-(7-(Difluoromethyl)-6-(1-methyl-1H-pyrazol-4-yl)-3,4-dihydroquinolin-1(2H)-yl)-1-(1-(9-(((S)-1-((2S,4R)-4-hydroxy-2-((4-(4-methylthiazol-5-yl)benzyl)carbamoyl)pyrrolidin-1-yl)-3,3-dimethyl-1-oxobutan-2-yl)amino)-9-oxononanoyl)piperidin-4-yl)-N-methyl-1,4,6,7-tetrahydro-5H-pyrazolo[4,3-c]pyridine-5-carboxamide] |  | 7.09 |  |  | < 20%
12 | CC(=O)N1CCc2c(c(N3CCCc4cc(-c5cnn(C)c5)c(C(F)F)cc43)nn2C2CCN(C(=O)CCCCCCCNc3cccc4c3n(C)c(=O)n4C3CCC(=O)NC3=O)CC2)C1 (centres unmarked) [P-159, 3-(4-((8-(4-(5-acetyl-3-(7-(difluoromethyl)-6-(1-methyl-1H-pyrazol-4-yl)-3,4-dihydroquinolin-1(2H)-yl)-4,5,6,7-tetrahydro-1H-pyrazolo[4,3-c]pyridin-1-yl)piperidin-1-yl)-8-oxooctyl)amino)-3-methyl-2-oxo-2,3-dihydro-1H-benzo[d]imidazol-1-yl)piperidine-2,6-dione] |  | 9.70 |  |  | > 80%
13 | CNC(=O)N1CCc2c(c(N3CCCc4cc(-c5cnn(C)c5)c(C(F)F)cc43)nn2C2CCN(C(=O)CCC(=O)N[C@H](C(=O)N3C[C@H](O)C[C@H]3C(=O)NCc3ccc(-c4scnc4C)cc3)C(C)(C)C)CC2)C1 [P-056, 3-(7-(Difluoromethyl)-6-(1-methyl-1H-pyrazol-4-yl)-3,4-dihydroquinolin-1(2H)-yl)-1-(1-(4-(((S)-1-((2S,4R)-4-hydroxy-2-((4-(4-methylthiazol-5-yl)benzyl)carbamoyl)pyrrolidin-1-yl)-3,3-dimethyl-1-oxobutan-2-yl)amino)-4-oxobutanoyl)piperidin-4-yl)-N-methyl-1,4,6,7-tetrahydro-5H-pyrazolo[4,3-c]pyridine-5-carboxamide] |  | 7.12 |  |  | < 20%
